In patent publication US4556715A, “Nicotinic acid derivatives” (Kyorin Pharmaceutical Co., Ltd., priority 1980, dated 1985):
Like-named read-outs stand apart in the source and are kept apart here.

Tests used:
[1] = in vivo; settings: mouse, po, p o, male ICR mice
Source text: The present compounds were given to 6 week-old male mice of the ICR strain and their acute toxicity was examined.

[2] = tested on: serum and liver lipid levels in rats; assay: Serum and liver lipid levels and relative liver weight in rats (25 mg/kg, 10 days); type: in vivo, male Wistar rats; settings: Table 4; for Liver lipid levels Ch / Liver lipid levels PL / Liver lipid levels TG / Relative liver weight / Serum lipid levels Ch / Serum lipid levels PL / Serum lipid levels TG: 25 mg/kg p.o. 10 days, Mean ± S.E. (n = 7); for Liver lipid levels Ch, relative to Control (100) / Liver lipid levels PL, relative to Control (100) / Liver lipid levels TG, relative to Control (100) / Relative liver weight, relative to Control (100) / Serum lipid levels Ch, relative to Control (100) / Serum lipid levels PL, relative to Control (100) / Serum lipid levels TG, relative to Control (100): in parentheses
Experimental: (3) The present compounds and KCD-232 were orally given to male Wistar rats weighing 160-180 g once a day at a dose of 25 mg/kg b.w. for 10 days. Rats were subjected to fast for 4 hr immediately after the last administration of compounds, thereafter they were sacrificed by decapitation and blood was collected, clotted and centrifuged to obtain serum. The liver was removed quickly and weighed. Total lipids were extracted from the serum and liver, and then the levels of total Ch, TG and PL were determined with colorimetric methods.

[3] = tested on: serum and liver lipid levels in rats; assay: Serum and liver lipid levels and relative liver weight in rats (100 mg/kg, 10 days); type: in vivo, Male rats of the Wistar strain; settings: for response vs control in vivo at 100 mg/kg: Rattus norvegicus, po; for response vs control in vivo at 100 mg/kg / Relative liver weight, relative to Control (100): in parentheses, Control = (100); for Liver lipid levels Ch / Liver lipid levels PL / Liver lipid levels TG / Relative liver weight / Serum lipid levels Ch / Serum lipid levels PL / Serum lipid levels TG: 100 mg/kg p.o. 10 days, Mean ± S.E. (n = 9)
Experimental: (2) Male rats of the Wistar strain weighing 160-180 g were fed a stock deit (CE-2, Japan CLEA, Tokyo) and water ad libitum. The present compounds and KCD-232 were suspended, respectively, in a 0.5% of CMC solution and give orally to rats once a day at a dose of 100 mg/kg b.w. for 10 days.
Control rats were received the 0.5% CMC solution alone. The diet was withdrawn immediately after the last administration of compounds. Animals were sacrificed by decapitation 4 hr after the last administration and blood was collected, clotted and centrifuged to obtain serum. The liver was excised quickly and weighed. Total lipids were extracted from the serum and liver, and the levels of Ch, TG and PL were determined colorimetrically.

[4] = tested on: serum and liver lipid levels in normal rats; assay: Effects on relative liver weight, serum and liver lipid levels in normal rats (100 mg/kg, 7 days); type: in vivo, Male Wistar strain rats
Experimental: (1) Effects on relative liver weight, serum and liver lipid levels in normal rats
Male Wistar strain rats, weighing 180-210 g were orally administered the present compounds (X=Cl, n1 =2, 3, 4 and n2 =1) and 4-(4-chlorobenzyloxy)benzyl nicotinate (KCD-232), being X=Cl, n1 =1, n2 =1, respectively, which were suspended in 0.5% carboxymethyl cellulose (CMC) solution once a day at a dose of 100 mg/kg b.w. for 7 days. The last administration was occured in rats fasted overnight. At 4 hr later blood was withdrawn from jugular vein, clotted and centrifuged to obtain serum. The liver was rapidly removed and weighed. Total lipids were extracted from the serum and liver, and cholesterol (Ch), triglycerides (TG) and phospholipids (PL) levels were determined.

[5] = 240 h, Table 3, read-out: Liver lipid levels PL, relative to Control (100)
[6] = Table 3, read-out: Liver lipid levels Ch, relative to Control (100)
[7] = Table 3, read-out: Liver lipid levels TG, relative to Control (100)
[8] = Table 3, read-out: Serum lipid levels Ch, relative to Control (100)
[9] = Table 3, read-out: Serum lipid levels PL, relative to Control (100)
[10] = Table 3, read-out: Serum lipid levels TG, relative to Control (100)
[11] = Table 1, 100 mg/kg p.o. 7 days, fasted overnight, mean ± S.E. (n = 6)
[12] = Table 1, in parentheses, Control = (100)
[13] = 240 h, Table 2, read-out: Liver lipid levels PL, relative to Control (100)
[14] = Table 2, read-out: Liver lipid levels Ch, relative to Control (100)
[15] = Table 2, read-out: Liver lipid levels TG, relative to Control (100)
[16] = Table 2, read-out: Serum lipid levels Ch, relative to Control (100)
[17] = Table 2, read-out: Serum lipid levels PL, relative to Control (100)
[18] = Table 2, read-out: Serum lipid levels TG, relative to Control (100)

Compound: O=C(OCCCc1ccc(OCc2ccc(Cl)cc2)cc1)c1cccnc1 [n1=1, n2=3, 3-[4-(4-Chlorobenzyloxy)phenyl]propyl nicotinate]
- LD50 [1]: > 4000 mg/kg
- Liver lipid levels Ch [2]: 3.23 ± 0.17 mg/g liver
- Liver lipid levels PL [2]: 38.2 ± 0.5 mg/g liver
- Liver lipid levels TG [2]: 3.80 ± 0.50 mg/g liver
- Relative liver weight [2]: 3.53 ± 0.08 g/100 g b.w.
- Serum lipid levels Ch [2]: 66.4 ± 5.3 mg/dL
- Serum lipid levels PL [2]: 85.8 ± 4.8 mg/dL
- Serum lipid levels TG [2]: 29.2 ± 1.7 mg/dL
- Liver lipid levels Ch, relative to Control (100) [2]: 99.4
- Liver lipid levels PL, relative to Control (100) [2]: 100.5
- Liver lipid levels TG, relative to Control (100) [2]: 51.1
- Relative liver weight, relative to Control (100) [2]: 100
- Serum lipid levels Ch, relative to Control (100) [2]: 84.7
- Serum lipid levels PL, relative to Control (100) [2]: 79.3
- Serum lipid levels TG, relative to Control (100) [2]: 77.2
- response vs control in vivo at 100 mg/kg [3, 5]: 96.1%
- response vs control in vivo at 100 mg/kg [3, 6]: 97.8%
- response vs control in vivo at 100 mg/kg [3, 7]: 73%
- response vs control in vivo at 100 mg/kg [3, 8]: 83.7%
- response vs control in vivo at 100 mg/kg [3, 9]: 79.4%
- response vs control in vivo at 100 mg/kg [3, 10]: 63.3%
- Liver lipid levels Ch ([3]; Table 3): 2.27 ± 0.09 mg/g liver
- Liver lipid levels PL ([3]; Table 3): 34.8 ± 0.5 mg/g liver
- Liver lipid levels TG ([3]; Table 3): 5.24 ± 0.40 mg/g liver
- Relative liver weight ([3]; Table 3): 3.70 ± 0.05 g/100 g b.w.
- Serum lipid levels Ch ([3]; Table 3): 81.7 ± 2.7 mg/dL
- Serum lipid levels PL ([3]; Table 3): 124 ± 5.5 mg/dL
- Serum lipid levels TG ([3]; Table 3): 79.5 ± 10.4 mg/dL
- Relative liver weight, relative to Control (100) ([3]; Table 3): 98

Compound: O=C(OCCCCCCc1ccc(OCc2ccc(Cl)cc2)cc1)c1cccnc1 [n1=1, n2=6, 6-[4-(4-Chlorobenzyloxy)phenyl]hexyl nicotinate]
- LD50 [1]: > 4000 mg/kg
- Liver lipid levels Ch [2]: 2.83 ± 0.18 mg/g liver
- Liver lipid levels PL [2]: 38.8 ± 1.1 mg/g liver
- Liver lipid levels TG [2]: 5.48 ± 0.93 mg/g liver
- Relative liver weight [2]: 3.91 ± 0.09 g/100 g b.w.
- Serum lipid levels Ch [2]: 70 ± 5.5 mg/dL
- Serum lipid levels PL [2]: 100 ± 5.9 mg/dL
- Serum lipid levels TG [2]: 33.5 ± 2.5 mg/dL
- Liver lipid levels Ch, relative to Control (100) [2]: 87.1
- Liver lipid levels PL, relative to Control (100) [2]: 102.1
- Liver lipid levels TG, relative to Control (100) [2]: 73.7
- Relative liver weight, relative to Control (100) [2]: 111
- Serum lipid levels Ch, relative to Control (100) [2]: 89.3
- Serum lipid levels PL, relative to Control (100) [2]: 92.5
- Serum lipid levels TG, relative to Control (100) [2]: 88.6
- response vs control in vivo at 100 mg/kg [3, 5]: 106%
- response vs control in vivo at 100 mg/kg [3, 6]: 107%
- response vs control in vivo at 100 mg/kg [3, 7]: 83.7%
- response vs control in vivo at 100 mg/kg [3, 8]: 75.3%
- response vs control in vivo at 100 mg/kg [3, 9]: 68.9%
- response vs control in vivo at 100 mg/kg [3, 10]: 32.1%
- Liver lipid levels Ch ([3]; Table 3): 2.48 ± 0.10 mg/g liver
- Liver lipid levels PL ([3]; Table 3): 38.5 ± 0.7 mg/g liver
- Liver lipid levels TG ([3]; Table 3): 6.01 ± 0.76 mg/g liver
- Relative liver weight ([3]; Table 3): 3.72 ± 0.06 g/100 g b.w.
- Serum lipid levels Ch ([3]; Table 3): 73.5 ± 2.3 mg/dL
- Serum lipid levels PL ([3]; Table 3): 107 ± 3.1 mg/dL
- Serum lipid levels TG ([3]; Table 3): 40.3 ± 3.5 mg/dL
- Relative liver weight, relative to Control (100) ([3]; Table 3): 98

Compound: O=C(OCc1ccc(OCCc2ccc(Cl)cc2)cc1)c1cccnc1 [n1=2, n2=1, 4-[2-(4-Chlorophenyl)ethoxy]benzyl nicotinate]
- serum Ch, TG and PL (in words) ([4]; 100 mg/kg p.o. 7 days, compared with control): significantly reduced serum Ch, TG and PL
- Liver lipid levels Ch [4, 11]: 3.78 ± 0.10 mg/g liver
- Liver lipid levels PL [4, 11]: 37.2 ± 1.5 mg/g liver
- Liver lipid levels TG [4, 11]: 11.49 ± 1.65 mg/g liver
- Serum lipid levels Ch [4, 11]: 53.5 ± 2.2 mg/dL
- Serum lipid levels PL [4, 11]: 69 ± 2.7 mg/dL
- Serum lipid levels TG [4, 11]: 22.4 ± 4.3 mg/dL
- Relative liver weight ([4]; Table 1, 100 mg/kg p.o. 7 days, mean ± S.E. (n = 6)): 3.17 ± 0.10 g/100 g b.w.
- Liver lipid levels Ch, relative to Control (100) [4, 12]: 107
- Liver lipid levels PL, relative to Control (100) [4, 12]: 101
- Liver lipid levels TG, relative to Control (100) [4, 12]: 156
- Relative liver weight, relative to Control (100) [4, 12]: 103
- Serum lipid levels Ch, relative to Control (100) [4, 12]: 70
- Serum lipid levels PL, relative to Control (100) [4, 12]: 68
- Serum lipid levels TG, relative to Control (100) [4, 12]: 66
- response vs control in vivo at 100 mg/kg [3, 13]: 102%
- response vs control in vivo at 100 mg/kg [3, 14]: 96.7%
- response vs control in vivo at 100 mg/kg [3, 15]: 87%
- response vs control in vivo at 100 mg/kg [3, 16]: 76.7%
- response vs control in vivo at 100 mg/kg [3, 17]: 74%
- response vs control in vivo at 100 mg/kg [3, 18]: 44%
- Liver lipid levels Ch ([3]; Table 2): 2.94 ± 0.07 mg/g liver
- Liver lipid levels PL ([3]; Table 2): 39.0 ± 0.7 mg/g liver
- Liver lipid levels TG ([3]; Table 2): 5.50 ± 0.59 mg/g liver
- Relative liver weight ([3]; Table 2): 3.98 ± 0.06 g/100 g b.w.
- Serum lipid levels Ch ([3]; Table 2): 66.5 ± 2.2 mg/dL
- Serum lipid levels PL ([3]; Table 2): 110 ± 3.7 mg/dL
- Serum lipid levels TG ([3]; Table 2): 54.4 ± 5 mg/dL
- Relative liver weight, relative to Control (100) ([3]; Table 2): 103

Compound: O=C(OCc1ccc(OCCCCCCc2ccc(Cl)cc2)cc1)c1cccnc1 [n1=6, n2=1, 4-[6-(4-Chlorophenyl)hexyloxy]benzyl nicotinate]
- LD50 [1]: > 4000 mg/kg
- Liver lipid levels Ch [2]: 3.14 ± 0.17 mg/g liver
- Liver lipid levels PL [2]: 38.9 ± 0.8 mg/g liver
- Liver lipid levels TG [2]: 3.03 ± 0.41 mg/g liver
- Relative liver weight [2]: 3.91 ± 0.08 g/100 g b.w.
- Serum lipid levels Ch [2]: 54.2 ± 4.9 mg/dL
- Serum lipid levels PL [2]: 72.2 ± 5.6 mg/dL
- Serum lipid levels TG [2]: 24 ± 2.1 mg/dL
- Liver lipid levels Ch, relative to Control (100) [2]: 96.7
- Liver lipid levels PL, relative to Control (100) [2]: 102.4
- Liver lipid levels TG, relative to Control (100) [2]: 40.7
- Relative liver weight, relative to Control (100) [2]: 111
- Serum lipid levels Ch, relative to Control (100) [2]: 69.1
- Serum lipid levels PL, relative to Control (100) [2]: 66.7
- Serum lipid levels TG, relative to Control (100) [2]: 63.5
- response vs control in vivo at 100 mg/kg [3, 13]: 109%
- response vs control in vivo at 100 mg/kg [3, 14]: 94.4%
- response vs control in vivo at 100 mg/kg [3, 15]: 73.9%
- response vs control in vivo at 100 mg/kg [3, 16]: 74.6%
- response vs control in vivo at 100 mg/kg [3, 17]: 65.9%
- response vs control in vivo at 100 mg/kg [3, 18]: 25.6%
- Liver lipid levels Ch ([3]; Table 2): 2.87 ± 0.08 mg/g liver
- Liver lipid levels PL ([3]; Table 2): 41.6 ± 0.5 mg/g liver
- Liver lipid levels TG ([3]; Table 2): 4.67 ± 0.32 mg/g liver
- Relative liver weight ([3]; Table 2): 4.17 ± 0.07 g/100 g b.w.
- Serum lipid levels Ch ([3]; Table 2): 64.7 ± 3 mg/dL
- Serum lipid levels PL ([3]; Table 2): 97.8 ± 3.8 mg/dL
- Serum lipid levels TG ([3]; Table 2): 31.7 ± 2.8 mg/dL
- Relative liver weight, relative to Control (100) ([3]; Table 2): 108
